Source: US20190307843A1, “SINGLE DOSE METHODS FOR PREVENTING AND TREATING FUNGAL INFECTIONS” (Cidara Therapeutics, Inc., priority 2016, published 2019)
Read-outs that look alike come from different tables or passages of the source. Starred links: 1 amine or outer side, 2 acyl side, 3 side chain; linkers in the order of their positions; H or OH if unused. Positions of bridges follow the written chain, without caps; N, C: chain ends. Non-standard residues stand in square brackets, D forms with d. Residues, ends and D or L forms follow the SMILES beside them. *: point of attachment. Orn(4R-OH,5R-OCH2CH2NMe3+) = C[N+](C)(C)CCO[C@@H](N[*:3])[C@H](O)C[C@H](N[*:1])C(=O)[*:2]; pTerphenylCO(4''-OnC5H11) = CCCCCOc1ccc(-c2ccc(-c3ccc(C(=O)*)cc3)cc2)cc1; hTyr(3S-OH,4S-OH) = N[C@H](C(=O)O)[C@H](O)[C@@H](O)c1ccc(O)cc1; Pro(3S-OH,4S-Me) = C[C@H]1CN[C@H](C(=O)O)[C@H]1O; Hyp = O=C(O)[C@@H]1C[C@@H](O)CN1

What was measured:
[1] = test system: Candida auris strains; assay: Candida auris antifungal susceptibility testing (CLSI M27-A3), 38 strains; type: cell-based; details: for MIC: Candidozyma auris, read-out: MIC
[2] = test system: C. albicans SC-5314 biofilms; assay: Adhesion phase biofilms (prevention), XTT metabolic activity and CSLM; type: cell-based, Candida albicans
[3] = test system: C. albicans strain 529L; assay: Rat model of vulvovaginal candidiasis, vaginal lavage and tissue burden; type: in vivo, Candida albicans; details: 5 mg/kg SC Dosed Once
[4] = lavage Day 1 post infection, pre-treatment

CCCCCOc1ccc(-c2ccc(-c3ccc(C(=O)N[C@H]4C[C@@H](O)[C@@H](OCC[N+](C)(C)C)NC(=O)[C@@H]5[C@@H](O)[C@@H](C)CN5C(=O)[C@H]([C@@H](C)O)NC(=O)[C@H]([C@H](O)[C@@H](O)c5ccc(O)cc5)NC(=O)[C@@H]5C[C@@H](O)CN5C(=O)[C@H]([C@@H](C)O)NC4=O)cc3)cc2)cc1 [CD101] ({pTerphenylCO(4''-OnC5H11)}-[Orn(4R-OH,5R-OCH2CH2NMe3+)]T[Hyp][hTyr(3S-OH,4S-OH)]T[Pro(3S-OH,4S-Me)]; lactam 1-C)
MIC ([1]; 24 h, strain 1 VPCI 669/P/12, 24 h): 0.5 µg/mL
MIC ([1]; 24 h, strain 2 VCPI 671/P/12, 24 h): 0.5 µg/mL
MIC ([1]; 24 h, strain 3 VCPI 674/P/12, 24 h): 0.25 µg/mL
MIC ([1]; 24 h, strain 4 VCPI 683/P/12, 24 h): 0.5 µg/mL
MIC ([1]; 24 h, strain 5 VCPI 692/P/12, 24 h): 0.5 µg/mL
MIC ([1]; 24 h, strain 6 VCPI 712/P/12, 24 h): 0.25 µg/mL
MIC ([1]; 24 h, strain 7 VCPI 471/P/13, 24 h): 0.5 µg/mL
MIC ([1]; 24 h, strain 8 VCPI 475/P/13, 24 h): 0.5 µg/mL
MIC ([1]; 24 h, strain 9 VCPI 478/P/13, 24 h): 0.25 µg/mL
MIC ([1]; 24 h, strain 10 VCPI 479/P/13, 24 h): 0.25 µg/mL
MIC ([1]; 24 h, strain 11 VCPI 480/P/13, 24 h): 0.25 µg/mL
MIC ([1]; 24 h, strain 12 VCPI 482/P/13, 24 h): 0.25 µg/mL
MIC ([1]; 24 h, strain 13 VCPI 483/P/13, 24 h): 0.25 µg/mL
MIC ([1]; 24 h, strain 14 VCPI 1130/P/13, 24 h): 0.5 µg/mL
MIC ([1]; 24 h, strain 15 VCPI 1132/P/13, 24 h): 0.5 µg/mL
MIC ([1]; 24 h, strain 16 VCPI 1133/P/13, 24 h): 16 µg/mL
MIC ([1]; 24 h, strain 17 VCPI 105/P/14, 24 h): 0.25 µg/mL
MIC ([1]; 24 h, strain 18 VCPI 107/P/14, 24 h): 0.125 µg/mL
MIC ([1]; 24 h, strain 19 VCPI 510/P/14, 24 h): 0.25 µg/mL
MIC ([1]; 24 h, strain 20 VCPI 511/P/14, 24 h): 0.25 µg/mL
MIC ([1]; 24 h, strain 21 VCPI 512/P/14, 24 h): 0.25 µg/mL
MIC ([1]; 24 h, strain 22 VCPI 513/P/14, 24 h): 0.5 µg/mL
MIC ([1]; 24 h, strain 23 VCPI 514/P/14, 24 h): 0.5 µg/mL
MIC ([1]; 24 h, strain 24 VCPI 250/P/14, 24 h): 0.25 µg/mL
MIC ([1]; 24 h, strain 25 VCPI 265/P/14, 24 h): 16 µg/mL
MIC ([1]; 24 h, strain 26 VCPI 266/P/14, 24 h): 0.5 µg/mL
MIC ([1]; 24 h, strain 27 VCPI 462/P/14, 24 h): 16 µg/mL
MIC ([1]; 24 h, strain 28 VCPI 463/P/14, 24 h): 0.125 µg/mL
MIC ([1]; 24 h, strain 29 VCPI 467/P/14, 24 h): 0.25 µg/mL
MIC ([1]; 24 h, strain 30 VCPI 471a/P/14, 24 h): 16 µg/mL
MIC ([1]; 24 h, strain 31 VCPI 478/P/14, 24 h): 0.5 µg/mL
MIC ([1]; 24 h, strain 32 VCPI 518/P/14, 24 h): 0.5 µg/mL
MIC ([1]; 24 h, strain 33 VCPI 550/P/14, 24 h): 0.5 µg/mL
MIC ([1]; 24 h, strain 34 VCPI 714/P/14, 24 h): 0.25 µg/mL
MIC ([1]; 24 h, strain 35 VCPI 717/P/14, 24 h): 0.25 µg/mL
MIC ([1]; 24 h, strain 36 VCPI 1060/P/14, 24 h): 0.25 µg/mL
MIC ([1]; 24 h, strain 37 VCPI 74/P/15, 24 h): 0.25 µg/mL
MIC ([1]; 24 h, strain 38 VCPI 213/P/15, 24 h): 0.25 µg/mL
MIC ([1]; 48 h, strain 1 VPCI 669/P/12, 48 h): 0.5 µg/mL
MIC ([1]; 48 h, strain 2 VCPI 671/P/12, 48 h): 0.5 µg/mL
MIC ([1]; 48 h, strain 3 VCPI 674/P/12, 48 h): 0.25 µg/mL
MIC ([1]; 48 h, strain 4 VCPI 683/P/12, 48 h): 0.5 µg/mL
MIC ([1]; 48 h, strain 5 VCPI 692/P/12, 48 h): 0.5 µg/mL
MIC ([1]; 48 h, strain 6 VCPI 712/P/12, 48 h): 0.25 µg/mL
MIC ([1]; 48 h, strain 7 VCPI 471/P/13, 48 h): 0.5 µg/mL
MIC ([1]; 48 h, strain 8 VCPI 475/P/13, 48 h): 0.5 µg/mL
MIC ([1]; 48 h, strain 9 VCPI 478/P/13, 48 h): 0.25 µg/mL
MIC ([1]; 48 h, strain 10 VCPI 479/P/13, 48 h): 0.25 µg/mL
MIC ([1]; 48 h, strain 11 VCPI 480/P/13, 48 h): 0.25 µg/mL
MIC ([1]; 48 h, strain 12 VCPI 482/P/13, 48 h): 0.25 µg/mL
MIC ([1]; 48 h, strain 13 VCPI 483/P/13, 48 h): 0.25 µg/mL
MIC ([1]; 48 h, strain 14 VCPI 1130/P/13, 48 h): 0.25 µg/mL
MIC ([1]; 48 h, strain 15 VCPI 1132/P/13, 48 h): 0.25 µg/mL
MIC ([1]; 48 h, strain 16 VCPI 1133/P/13, 48 h): > 16 µg/mL
MIC ([1]; 48 h, strain 17 VCPI 105/P/14, 48 h): 0.25 µg/mL
MIC ([1]; 48 h, strain 18 VCPI 107/P/14, 48 h): 0.125 µg/mL
MIC ([1]; 48 h, strain 19 VCPI 510/P/14, 48 h): 0.25 µg/mL
MIC ([1]; 48 h, strain 20 VCPI 511/P/14, 48 h): 0.25 µg/mL
MIC ([1]; 48 h, strain 21 VCPI 512/P/14, 48 h): 0.25 µg/mL
MIC ([1]; 48 h, strain 22 VCPI 513/P/14, 48 h): 0.5 µg/mL
MIC ([1]; 48 h, strain 23 VCPI 514/P/14, 48 h): 0.5 µg/mL
MIC ([1]; 48 h, strain 24 VCPI 250/P/14, 48 h): 0.25 µg/mL
MIC ([1]; 48 h, strain 25 VCPI 265/P/14, 48 h): > 16 µg/mL
MIC ([1]; 48 h, strain 26 VCPI 266/P/14, 48 h): 0.25 µg/mL
MIC ([1]; 48 h, strain 27 VCPI 462/P/14, 48 h): > 16 µg/mL
MIC ([1]; 48 h, strain 28 VCPI 463/P/14, 48 h): 0.125 µg/mL
MIC ([1]; 48 h, strain 29 VCPI 467/P/14, 48 h): 0.25 µg/mL
MIC ([1]; 48 h, strain 30 VCPI 471a/P/14, 48 h): > 16 µg/mL
MIC ([1]; 48 h, strain 31 VCPI 478/P/14, 48 h): 1 µg/mL
MIC ([1]; 48 h, strain 32 VCPI 518/P/14, 48 h): 0.5 µg/mL
MIC ([1]; 48 h, strain 33 VCPI 550/P/14, 48 h): 1 µg/mL
MIC ([1]; 48 h, strain 34 VCPI 714/P/14, 48 h): 0.25 µg/mL
MIC ([1]; 48 h, strain 35 VCPI 717/P/14, 48 h): 0.25 µg/mL
MIC ([1]; 48 h, strain 36 VCPI 1060/P/14, 48 h): 0.25 µg/mL
MIC ([1]; 48 h, strain 37 VCPI 74/P/15, 48 h): 0.25 µg/mL
MIC ([1]; 48 h, strain 38 VCPI 213/P/15, 48 h): 0.25 µg/mL
number of resistant isolates ([1]; of 38 C. auris isolates): 4
biofilm formation by metabolic activity (XTT) ([2]; CD101 0.25 and 1 μg/ml, 24 h, vs untreated): formed significantly less biofilms compared to untreated C. albicans
thickness of biofilms ([2]; exposure to CD101, untreated control 36 μm): 4 μm
Group Geometric mean [3, 4]: 9.11 × 10^2 CFU/mL
Log Group Geometric mean [3, 4]: 2.96 CFU/mL
Log reduction from vehicle control [3, 4]: −0.52 CFU/mL
Group Geometric mean ([3]; lavage Day 2 post infection): 3.34 × 10^2 CFU/mL
Log Group Geometric mean ([3]; lavage Day 2 post infection): 2.52 CFU/mL
Log reduction from vehicle control ([3]; lavage Day 2 post infection): 1.17 CFU/mL
Group Geometric mean ([3]; lavage Day 3 post infection): 1.21 × 10^2 CFU/mL
Log Group Geometric mean ([3]; lavage Day 3 post infection): 2.08 CFU/mL
Log reduction from vehicle control ([3]; lavage Day 3 post infection): 1.49 CFU/mL
Group Geometric mean ([3]; lavage Day 5 post infection): 1.70 × 10^3 CFU/mL
Log Group Geometric mean ([3]; lavage Day 5 post infection): 3.23 CFU/mL
Log reduction from vehicle control ([3]; lavage Day 5 post infection): 0.99 CFU/mL
